Data from patent US20100081642A1, “CB-1 RECEPTOR MODULATOR PHARMACEUTICAL FORMULATIONS” (priority 2008, published 2010).
Values after ≈ are worked out from the molar mass of the structure shown. Like-named read-outs stand apart in the source and are kept apart here.

Test: Solubility of Compound I in various vehicles (high throughput screening, HPLC assay of solution phase)
Type: physicochemical
Protocol: Solubility of Compound 1 was determined using a high throughput screening method.
The above solubilities were determined by adding Compound I to the test system and stirred. Following an equilibrium time, the material in the solution phase is assayed by HPLC to determine solubility.

With `CC(C)(F)[C@H](c1cc(F)cc(C#N)c1)C1CN([C@@H](c2ccc(Cl)cc2)c2cccc(-c3n[nH]c(=O)o3)c2)C1` [Compound I, 3-[(1S)-1-(1-{(S)-(4-chlorophenyl)[3-(5-oxo-4,5-dihydro-1,3,4-oxadiazol-2-yl)phenyl]methyl}azetidin-3-yl)-2-fluoro-2-methylpropyl]-5-fluorobenzonitrile] as the compound, how does the solubility (aqueous with cosolvent or surfactant or cyclodextrin, thermodynamic from solid, vehicle CREMOPHOR EL (aqueous solution), free base, read-out: Solubility in vehicle at ambient temperature) read?
The solubility was < 40 µg/mL.

What about the solubility (aqueous with cosolvent or surfactant or cyclodextrin, thermodynamic from solid, vehicle Methyl Cellulose (aqueous solution), free base, read-out: Solubility in vehicle at ambient temperature) of the same compound?
The solubility was < 40 µg/mL.

What about the solubility (aqueous with cosolvent or surfactant or cyclodextrin, thermodynamic from solid, vehicle Methyl Cellulose with SDS (aqueous solution), free base, read-out: Solubility in vehicle at ambient temperature) of the same compound?
The solubility was < 40 µg/mL.

And the solubility (aqueous with cosolvent or surfactant or cyclodextrin, thermodynamic from solid, vehicle POLYSORBATE 80 (aqueous solution), free base, read-out: Solubility in vehicle at ambient temperature)?
Its solubility is < 40 µg/mL.

What about the solubility (aqueous with cosolvent or surfactant or cyclodextrin, thermodynamic from solid, vehicle Sodium lauryl sulfate (aqueous solution), free base, read-out: Solubility in vehicle at ambient temperature) of the same compound?
The solubility was < 40 µg/mL.

And the solubility (aqueous with cosolvent or surfactant or cyclodextrin, thermodynamic from solid, vehicle Vitamin E TPGS (aqueous solution), free base, read-out: Solubility in vehicle at ambient temperature)?
Its solubility is < 40 µg/mL.

And the solubility (fassgf or other biorelevant, thermodynamic from solid, vehicle Simulated gastric fluids (fasted and fed), free base, read-out: Solubility in vehicle at ambient temperature)?
Its solubility is < 40 µg/mL.

What about the “Solubility in vehicle at ambient temperature” value (shortened to “Solubility in vehicle”) (vehicle 0.01N HCl/34 mMNaCl, free base) of the same compound?
The value was 0.007 mg/g.

What about the “Solubility in vehicle” value (vehicle IMWITOR 742, free base) of the same compound?
The value was 318 mg/g.

And the “Solubility in vehicle” value (vehicle IMWITOR:TWEEN (1:1), free base)?
Its value is >240 mg/g.

And the “Solubility in vehicle” value (vehicle MIGLYOL 812, free base)?
Its value is 86 mg/g.

And the “Solubility in vehicle” value (vehicle Water, free base)?
Its value is 0.001 mg/g.

What about the solubility (water, statement in description, read-out: solubility in water) of the same compound?
The solubility was 1 µg/mL (≈ 1.87 µM).
